Patent US20250205259A1, “CLASS OF 7-((FIVE-MEMBERED HETEROCYCLIC)METHYL)-8-CARBOXYLIC ACID-BENZO CYCLIC BORATE DERIVATIVES AND USES THEREOF” (priority 2022, published 2025)
Like-named read-outs stand apart in the source and are kept apart here.

Legend:
NDM-5 = NDM-5 (Klebsiella pneumoniae, UniProt C7C422, M154L/V88L); test: Inhibitory activity on MBL, fluorescent substrate FC-5; type: biochemical
NDM-1 = NDM-1 (Klebsiella pneumoniae, UniProt C7C422); test: as above; type: biochemical
SHV-12 = target: T1, SHV-12 (UniProt P0AD64, L31Q/G234S/E235K, species not given); test: Inhibitory activity on SBL, fluorescent substrate FC-5; type: biochemical; settings: for inhibitory activity on SHV-12 compared to control drugs: comparison in words
T1 sequence (P0AD64 1-286 L31Q/G234S/E235K): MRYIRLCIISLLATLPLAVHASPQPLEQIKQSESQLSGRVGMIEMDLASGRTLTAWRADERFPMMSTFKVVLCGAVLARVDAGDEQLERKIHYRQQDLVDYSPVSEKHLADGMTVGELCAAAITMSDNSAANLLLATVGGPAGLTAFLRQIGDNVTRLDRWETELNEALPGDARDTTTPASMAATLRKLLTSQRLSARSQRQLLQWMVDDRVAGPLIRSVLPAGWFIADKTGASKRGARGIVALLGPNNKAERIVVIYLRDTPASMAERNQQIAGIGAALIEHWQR

VIM-1 = VIM-1 (Pseudomonas aeruginosa, UniProt A0A0F7KYQ8); test: Inhibitory activity on MBL, fluorescent substrate FC-5; type: biochemical
AmpC = AmpC (UniProt P24735); test: Inhibitory activity on SBL, fluorescent substrate FC-5
OXA-48 = OXA-48 (Klebsiella pneumoniae, UniProt Q6XEC0); test: as above; type: biochemical; settings: for inhibitory activity on OXA-48 compared to avibactam: comparison in words
Chain of OXA-48 (Q6XEC0 23-265 limits assumed): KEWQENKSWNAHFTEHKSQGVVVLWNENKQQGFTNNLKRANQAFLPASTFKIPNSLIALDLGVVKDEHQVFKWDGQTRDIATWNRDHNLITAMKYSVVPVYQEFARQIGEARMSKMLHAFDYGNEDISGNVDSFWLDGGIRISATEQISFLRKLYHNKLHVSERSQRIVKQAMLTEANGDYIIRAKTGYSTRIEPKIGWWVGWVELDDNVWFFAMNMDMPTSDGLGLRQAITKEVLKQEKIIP

VIM-2 = VIM-2 (Escherichia coli, UniProt Q5U7L7); test: Inhibitory activity on MBL, fluorescent substrate FC-5; type: biochemical
KPC-2 = KPC-2 (Klebsiella pneumoniae, UniProt Q9F663); test: Inhibitory activity on SBL, fluorescent substrate FC-5; type: biochemical; settings: for inhibitory activity on KPC-2 compared to avibactam: comparison in words
Chain of KPC-2 (Q9F663 25-293 limits assumed): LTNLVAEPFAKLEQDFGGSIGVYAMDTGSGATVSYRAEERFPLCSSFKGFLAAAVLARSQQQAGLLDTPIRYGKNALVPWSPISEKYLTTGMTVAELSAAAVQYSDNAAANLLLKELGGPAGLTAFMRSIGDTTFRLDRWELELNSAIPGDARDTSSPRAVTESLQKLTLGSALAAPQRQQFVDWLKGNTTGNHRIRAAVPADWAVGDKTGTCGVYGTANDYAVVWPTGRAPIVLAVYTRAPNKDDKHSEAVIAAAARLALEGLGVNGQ

IMP-1 = IMP-1 (Serratia marcescens, UniProt P52699); test: Inhibitory activity on MBL, fluorescent substrate FC-5; type: biochemical
Chain of IMP-1 (P52699 19-246 limits assumed): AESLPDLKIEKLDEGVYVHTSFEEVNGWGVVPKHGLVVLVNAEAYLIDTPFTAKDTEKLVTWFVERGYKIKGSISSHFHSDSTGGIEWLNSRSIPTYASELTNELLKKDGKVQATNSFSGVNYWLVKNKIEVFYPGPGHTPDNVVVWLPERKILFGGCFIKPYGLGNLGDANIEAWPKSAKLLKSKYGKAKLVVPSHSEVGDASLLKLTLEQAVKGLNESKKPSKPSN

CTX-M-14 = CTX-M-14 (Escherichia coli, UniProt Q9L5C7); test: Inhibitory activity on SBL, fluorescent substrate FC-5; type: biochemical; settings: for inhibitory activity on CTX-M-14 compared to avibactam: comparison in words
Chain of CTX-M-14 (Q9L5C7 entry or part of it): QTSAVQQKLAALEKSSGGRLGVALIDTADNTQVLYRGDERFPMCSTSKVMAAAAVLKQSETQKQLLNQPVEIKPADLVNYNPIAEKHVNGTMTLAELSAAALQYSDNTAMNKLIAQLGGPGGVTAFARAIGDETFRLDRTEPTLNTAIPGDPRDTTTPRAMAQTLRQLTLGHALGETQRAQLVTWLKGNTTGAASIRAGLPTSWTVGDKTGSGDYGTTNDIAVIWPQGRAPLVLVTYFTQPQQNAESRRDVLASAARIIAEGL

TEM-1 = TEM-1 (Escherichia coli, UniProt P62593); test: as above; type: biochemical; settings: for IC50: read-out: Inhibitory activity on SBL TEM-1 (IC50 class); for inhibitory activity on TEM-1 compared to avibactam: comparison in words
Chain of TEM-1 (P62593 24-286 limits assumed): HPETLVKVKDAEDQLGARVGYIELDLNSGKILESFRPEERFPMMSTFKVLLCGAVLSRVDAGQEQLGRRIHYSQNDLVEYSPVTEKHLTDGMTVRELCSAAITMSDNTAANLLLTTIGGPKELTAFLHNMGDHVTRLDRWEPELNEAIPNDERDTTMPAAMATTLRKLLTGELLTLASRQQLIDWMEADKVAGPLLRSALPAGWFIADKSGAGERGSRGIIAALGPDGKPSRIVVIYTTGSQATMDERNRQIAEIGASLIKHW

[1] = tested on: Klebsiella pneumoniae expressing KPC-2; test: Antibacterial activity in combination with meropenem (MIC), clinically isolated strains; settings: compound final concentration 10 μM
[2] = tested on: Escherichia coli expressing IMP-1; test: as above; type: cell-based; settings: clinical isolate EC1541 (blaIMP-1), compound final concentration 10 μM
[3] = read-out: Inhibitory activity on MBL NDM-5 (IC50 class)
[4] = read-out: Inhibitory activity on MBL NDM-1 (IC50 class)
[5] = read-out: Inhibitory activity on SBL SHV-12 (IC50 class)
[6] = read-out: Inhibitory activity on MBL VIM-1 (IC50 class)
[7] = read-out: Inhibitory activity on SBL AmpC (IC50 class)
[8] = read-out: Inhibitory activity on SBL OXA-48 (IC50 class)
[9] = read-out: Inhibitory activity on MBL VIM-2 (IC50 class)
[10] = read-out: Inhibitory activity on SBL KPC-2 (IC50 class)
[11] = read-out: Inhibitory activity on MBL IMP-1 (IC50 class)
[12] = read-out: Inhibitory activity on SBL CTX-M-14 (IC50 class)
[13] = read-out: inhibitory activity at a nanomolar-level on NDM-5
[14] = read-out: inhibitory activity at a nanomolar-level on NDM-1
[15] = VIM-1 and/or VIM-2, read-out: inhibitory activity at a nanomolar-level on VIM-1 and/or VIM-2
[16] = IMP-1 and/or IMP-4, read-out: inhibitory activity at a nanomolar-level on IMP-1 and/or IMP-4

Chain of NDM-1 (C7C422 29-270 limits assumed): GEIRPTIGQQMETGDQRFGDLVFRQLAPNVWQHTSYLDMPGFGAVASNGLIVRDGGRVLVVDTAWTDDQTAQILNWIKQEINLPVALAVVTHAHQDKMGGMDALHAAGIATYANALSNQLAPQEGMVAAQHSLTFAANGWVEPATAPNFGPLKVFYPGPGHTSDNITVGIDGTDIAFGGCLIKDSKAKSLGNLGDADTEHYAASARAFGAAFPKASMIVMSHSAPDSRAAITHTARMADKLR
Chain of NDM-5 (C7C422 29-270 V88L/M154L): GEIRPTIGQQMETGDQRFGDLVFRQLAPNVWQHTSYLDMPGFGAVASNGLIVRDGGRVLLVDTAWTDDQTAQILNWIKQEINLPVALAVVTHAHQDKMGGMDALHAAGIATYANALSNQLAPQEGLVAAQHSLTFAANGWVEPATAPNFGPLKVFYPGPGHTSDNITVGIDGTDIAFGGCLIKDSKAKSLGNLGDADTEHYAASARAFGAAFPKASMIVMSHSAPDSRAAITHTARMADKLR

SMILES	IC50 (NDM-5; [3]) [nM]	IC50 (NDM-1; [4]) [nM]	IC50 (SHV-12; [5]) [nM]	IC50 (VIM-1; [6]) [nM]	IC50 (AmpC; [7]) [nM]	IC50 (OXA-48; [8]) [nM]	IC50 (VIM-2; [9]) [nM]	IC50 (KPC-2; [10]) [nM]	IC50 (IMP-1; [11]) [nM]	IC50 (CTX-M-14; [12]) [nM]	IC50 (NDM-5; [13]) [nM]	IC50 (NDM-1; [14]) [nM]	IC50 (VIM-1; [15]) [nM]	IC50 (TEM-1) [nM]	IC50 (IMP-1; [16]) [nM]	other results
O=C(O)c1c(CNc2nncs2)ccc2c1OB(O)CC2 [Comparative example 1 compound 64, reference compound]	1000 to 100000	1000 to 100000	1000 to 100000	1000 to 100000	1000 to 100000	10 to 1000	1000 to 100000	10 to 1000	> 100000	10 to 1000						IC50 (NDM-5; unit inferred, read-out: NDM-5, number in parentheses under the class symbol): 3230 nM; IC50 (NDM-1): 3230 nM; IC50 (SHV-12; unit inferred, read-out: SHV-12, number in parentheses under the class symbol): 1580 nM; IC50 (VIM-1; unit inferred, read-out: VIM-1, number in parentheses under the class symbol): 5500 nM; IC50 (AmpC; read-out: AmpC, number in parentheses under the class symbol, unit inferred): 7500 nM; IC50 (OXA-48; unit inferred, read-out: OXA-48, number in parentheses under the class symbol): 154 nM; IC50 (VIM-2; unit inferred, read-out: VIM-2, number in parentheses under the class symbol): 8100 nM; IC50 (KPC-2; unit inferred, read-out: KPC-2, number in parentheses under the class symbol): 65 nM; IC50 (IMP-1; unit inferred, read-out: IMP-1, number in parentheses under the class symbol): 103000 nM; IC50 (CTX-M-14; unit inferred, read-out: CTX-M-14, number in parentheses under the class symbol): 63 nM
O=C(O)c1c(Cn2cc(-c3ccccc3)nn2)ccc2c1OB(O)CC2 [Compound 12]	10 to 1000	10 to 1000		1000 to 100000	> 100000	< 10	10 to 1000	< 10	1000 to 100000	10 to 1000	< 1000	< 1000	< 1000	10 to 1000		
O=C(O)c1c(Cn2ncc3ccccc32)ccc2c1OB(O)CC2 [Compound 22]	10 to 1000	10 to 1000		10 to 1000	1000 to 100000	< 10	10 to 1000	< 10	10 to 1000	10 to 1000	< 1000	< 1000	< 1000	10 to 1000	< 1000	
N=C(N)N1CC(c2cn(Cc3ccc4c(c3C(=O)O)OB(O)CC4)nn2)C1 [Compound 49]	10 to 1000	10 to 1000		1000 to 100000	1000 to 100000	10 to 1000	10 to 1000	< 10	10 to 1000	10 to 1000	< 1000	< 1000		10 to 1000	< 1000	
O=C(O)c1c(Cn2ccc3cncnc32)ccc2c1OB(O)CC2 [Compound 55]	10 to 1000	10 to 1000		1000 to 100000	1000 to 100000	10 to 1000	10 to 1000	< 10	10 to 1000	< 10	< 1000	< 1000		< 10	< 1000	
N=C(N)N1Cc2cnn(Cc3ccc4c(c3C(=O)O)OB(O)CC4)c2C1 [Compound 67]	1000 to 100000	10 to 1000		1000 to 100000	> 100000	< 10	10 to 1000	< 10	1000 to 100000	10 to 1000				10 to 1000		
NC(=O)N1Cc2cn(Cc3ccc4c(c3C(=O)O)OB(O)CC4)nc2C1 [Compound 73]	10 to 1000	10 to 1000	< 10	10 to 1000	10 to 1000	10 to 1000	10 to 1000	< 10	10 to 1000	10 to 1000	< 1000	< 1000	< 1000	< 10		inhibitory activity on SHV-12 compared to control drugs (SHV-12): comparable to avibactam and tazobactam and superior to taniborbactam; inhibitory activity on OXA-48 compared to avibactam (OXA-48): better or comparable; inhibitory activity on KPC-2 compared to avibactam (KPC-2): better or comparable; inhibitory activity on TEM-1 compared to avibactam (TEM-1): better or comparable; inhibitory activity on CTX-M-14 compared to avibactam (CTX-M-14): better or comparable
CN1Cc2cn(Cc3ccc4c(c3C(=O)O)OB(O)CC4)nc2C1 [Compound 74]	10 to 1000	10 to 1000	< 10	10 to 1000	10 to 1000	10 to 1000	10 to 1000	< 10	10 to 1000	10 to 1000	< 1000	< 1000	< 1000	< 10		inhibitory activity on SHV-12 compared to control drugs (SHV-12): comparable to avibactam and tazobactam and superior to taniborbactam; inhibitory activity on OXA-48 compared to avibactam (OXA-48): better or comparable; inhibitory activity on KPC-2 compared to avibactam (KPC-2): better or comparable; inhibitory activity on TEM-1 compared to avibactam (TEM-1): better or comparable; inhibitory activity on CTX-M-14 compared to avibactam (CTX-M-14): better or comparable
NCCN[C@H]1CC[C@H](CC(=O)N[C@H]2Cc3cccc(C(=O)O)c3OB2O)CC1 [Taniborbactam, reference compound]				10 to 1000		10 to 1000	< 10	10 to 1000	1000 to 100000	10 to 1000						MIC value of compounds in combination with meropenem, KP090344 (blaKPC-2) ([1]; clinical isolate KP090344 (blaKPC-2)): ++++ (++++ indicates MIC < 4 μg/ml); MIC value of compounds in combination with meropenem, KP140508 (blaKPC-2) ([1]; clinical isolate KP140508 (blaKPC-2)): ++++ (++++ indicates MIC < 4 μg/ml); MIC value of compounds in combination with meropenem, KP140912 (blaKPC-2) ([1]; clinical isolate KP140912 (blaKPC-2)): ++++ (++++ indicates MIC < 4 μg/ml); MIC value of compounds in combination with meropenem, EC1541 (blaIMP-1) [2]: ++++ (++++ indicates MIC < 4 μg/ml)
